Patent US5057522A, “Anti-hypersensitive N2-tetrazole-β-glucuronide analog” (Merck & Co., Inc., priority 1990, dated 1991)
pIC50: −log10 of the molar value.

Biological target: T1, Angiotensin II (A II) receptor (Oryctolagus cuniculus, UniProt P34976)
T1 construct: membrane preparation derived from rabbit aortae; tissue Pel-Freeze Biologicals; host or cells: rabbit aorta membrane preparation
T1 sequence (P34976 1-359): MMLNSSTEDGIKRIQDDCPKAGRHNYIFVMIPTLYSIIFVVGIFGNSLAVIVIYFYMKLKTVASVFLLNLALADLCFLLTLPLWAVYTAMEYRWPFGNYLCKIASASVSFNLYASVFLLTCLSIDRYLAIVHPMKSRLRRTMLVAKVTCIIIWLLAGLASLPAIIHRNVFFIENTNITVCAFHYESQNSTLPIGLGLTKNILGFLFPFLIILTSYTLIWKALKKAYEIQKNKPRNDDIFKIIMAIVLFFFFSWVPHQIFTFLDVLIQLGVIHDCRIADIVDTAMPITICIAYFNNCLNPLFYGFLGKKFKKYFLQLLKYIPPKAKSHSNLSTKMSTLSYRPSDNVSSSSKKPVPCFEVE
Assay: Receptor binding assay using rabbit aortae membrane preparation (displacement of 125I-Sar1 Ile8-angiotensin II; "IC50" assay)
Protocol: This assay is also referred to herein as the "IC50 " assay.
RECEPTOR BINDING ASSAY USING RABBIT AORTAE MEMBRANE PREPARATION
Three frozen rabbit aortae (obtained from Pel-Freeze Biologicals) were suspended in 5 mM Tris-0.25M Sucrose, pH 7.4 buffer (50 ml) homogenized, and then centrifuged. The mixture was filtered through a cheesecloth and the supernatant was centrifuged for 30 minutes at 20,000 rpm at 4° C. The pellet thus obtained was resuspended in 30 ml of 50 mM Tris-5 mM MgCl2 buffer containing 0.2% Bovine Serum Albumin and 0.2 mg/ml Bacitration and the suspension was used for 100 assay tubes. Samples tested for screening were done in duplicates. To the membrane preparation (0.25 ml) there was added ^125 I-Sar^1 Ile^8 -angiotensin II [obtained from New England Nuclear] (10 ul; 20,000 cpm) with or without the test sample and the mixture was incubated at 37° C. for 90 minutes. The mixture was then diluted with ice-cold 50 mM Tris-0.9% NaCl, pH 7.4 (4 ml) and filtered through a glass fiber filter (GF/B Whatman 2.4" diameter). The filter was soaked in scintillation cocktail (10 ml) and counted for radioactivity using Packard 2660 Tricarb liquid scintillation counter. […]

## CCc1nc2c(C)cc(C)nc2n1Cc1ccc(-c2ccccc2-c2nnn([C@@H]3O[C@H](C(=O)O)[C@@H](O)[C@H](O)[C@H]3O)n2)cc1 [compound (I)]
  A II antagonist activity by the IC50 assay: exhibits A II antagonist activity
37° C., 90 minutes, read-out: inhibitory concentration (IC50) giving 50% displacement of the total specifically bound 125I-Sar1 Ile8-angiotensin II
  pIC50: > 4.30
